pEC50: −log10 of the molar value.
Tests used:
Hepatitis B virus [1] = assay: Antiviral activity against wild type Hepatitis B virus infected in human HuH7 cells; format: functional, organism-based; settings: Huh-7
HepG2 [2] = assay: Mitochondrial toxicity in human HepG2 cells assessed as lactate dehydrogenase release up to 100 uM; format: cell-based
Hepatitis B virus [3] = assay: Antiviral activity against entecavir-resistant Hepatitis B virus harboring L180M/M204V/S202G triple mutant infected in human HuH7 cells; format: functional, organism-based; settings: Huh-7
[4] = Cytotoxicity against human HuH7 cells; format: cell-based, Huh-7
Hepatitis B virus [5] = assay: Selectivity ratio of EC50 for entecavir-resistant Hepatitis B virus harboring L180M/M204V/S202G triple mutant to EC50 for wild type Hepatitis B virus; format: functional
HepG2 [6] = assay: Mitochondrial toxicity in human HepG2 cells assessed as lactate dehydrogenase release up to 200 uM; format: cell-based

| SMILES | pEC50 (Hepatitis B virus [1]) | EC90 (Hepatitis B virus [1]) [nM] | Activity (HepG2 [2]) | pEC50 (Hepatitis B virus [3]) | CC50 [4] [nM] | Ratio EC50 (Hepatitis B virus [5]) | Activity (HepG2 [6]) |
| --- | --- | --- | --- | --- | --- | --- | --- |
| C=C1[C@@H](n2cnc3c(N)ncnc32)[C@H](F)[C@H](O)[C@H]1CO | 6.26 | 6000 | Non-toxic | 6.17 | > 300000 | – | – |
| C=C1[C@@H](n2cnc3c(N)ncnc32)[C@H](F)[C@H](O)[C@H]1COP(=O)(N[C@@H](C)C(=O)OC)Oc1ccccc1 (stereo not given in full) | 7.21 | 460 | – | 7.27 | > 300000 | – | – |
| C=C1[C@H](CO)[C@@H](O)C[C@@H]1n1cnc2c(=O)[nH]c(N)nc21.O [ENTECAVIR] | 8.10 | 33 | – | 5.92 | 28000 | 150 | – |
| Nc1ccn([C@@H]2CS[C@H](CO)O2)c(=O)n1 [LAMIVUDINE] | 7.25 | 142 | – | < 3.30 | > 300000 | – | Non-toxic |
| Cc1cn([C@H]2C[C@H](N=[N+]=[N-])[C@@H](CO)O2)c(=O)[nH]c1=O [ZIDOVUDINE] | – | – | – | – | – | – | Toxic |

From ChEMBL document CHEMBL2321711, “2'-Fluoro-6'-methylene-carbocyclic adenosine phosphoramidate (FMCAP) prodrug: in vitro anti-HBV activity against the lamivudine-entecavir resistant triple mutant and its mechanism of action” (Bioorg Med Chem Lett, 2013)
